Measurements as given in patent US10513521B2, “Compositions and methods for inhibiting BMP” (The Brigham and Women's Hospital, Inc., priority 2014, dated 2019).
Where two headings read alike, the source gives them in different places.

Columns and labels:
[1] = target: T1, ALK2 (Homo sapiens, UniProt Q04771); assay: TR-FRET enzymatic ALK kinase assay, ALK2
T1 sequence (Q04771 21-509): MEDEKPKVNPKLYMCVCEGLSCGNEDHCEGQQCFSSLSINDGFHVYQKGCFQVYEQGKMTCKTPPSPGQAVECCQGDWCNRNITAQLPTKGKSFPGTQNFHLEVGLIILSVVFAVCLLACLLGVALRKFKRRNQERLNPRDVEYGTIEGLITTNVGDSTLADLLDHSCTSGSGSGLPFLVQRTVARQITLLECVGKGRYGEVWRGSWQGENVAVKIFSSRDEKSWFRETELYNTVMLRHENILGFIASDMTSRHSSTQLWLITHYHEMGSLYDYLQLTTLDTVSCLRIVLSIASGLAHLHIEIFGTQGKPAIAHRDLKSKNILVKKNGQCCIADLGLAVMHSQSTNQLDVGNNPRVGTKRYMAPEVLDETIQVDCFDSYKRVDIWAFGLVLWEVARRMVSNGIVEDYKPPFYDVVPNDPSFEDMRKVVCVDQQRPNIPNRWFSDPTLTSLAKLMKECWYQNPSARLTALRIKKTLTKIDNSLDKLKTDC
Protocol: (§1) Briefly, the ALKs enzymatic assay was initiated by dispense 2.5 μl enzyme in 1× kinase reaction buffer. The assay plate was then added with compounds followed by incubation at room temperature for 10 minutes. Then 2.5 μl/well substrate was added.

[2] = target: T2, ALK5 (Homo sapiens, UniProt P36897); assay: TR-FRET enzymatic ALK kinase assay, ALK5
T2 sequence (P36897 34-503): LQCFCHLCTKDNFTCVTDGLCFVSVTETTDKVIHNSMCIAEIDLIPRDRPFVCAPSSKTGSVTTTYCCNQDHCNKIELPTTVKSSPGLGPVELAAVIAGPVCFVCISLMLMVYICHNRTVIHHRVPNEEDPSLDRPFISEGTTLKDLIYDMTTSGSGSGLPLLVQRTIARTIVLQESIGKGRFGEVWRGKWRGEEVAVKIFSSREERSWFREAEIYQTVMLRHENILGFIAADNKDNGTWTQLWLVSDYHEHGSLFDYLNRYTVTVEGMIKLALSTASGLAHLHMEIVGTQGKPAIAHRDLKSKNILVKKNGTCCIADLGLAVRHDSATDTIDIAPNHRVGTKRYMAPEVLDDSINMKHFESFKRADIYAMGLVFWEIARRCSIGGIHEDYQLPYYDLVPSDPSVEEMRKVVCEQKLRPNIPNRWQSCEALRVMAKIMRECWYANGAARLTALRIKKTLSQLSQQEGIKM
Protocol: Six ALK kinase enzyme assays were developed for determination of compound activities on ALK1, ALK2, ALK3, ALK4, ALK5 and ALK6.
as §1

[3] = target: ALK3 (Homo sapiens, UniProt P36894); assay: TR-FRET enzymatic ALK kinase assay, ALK3
ALK3, sequence (P36894 24-532): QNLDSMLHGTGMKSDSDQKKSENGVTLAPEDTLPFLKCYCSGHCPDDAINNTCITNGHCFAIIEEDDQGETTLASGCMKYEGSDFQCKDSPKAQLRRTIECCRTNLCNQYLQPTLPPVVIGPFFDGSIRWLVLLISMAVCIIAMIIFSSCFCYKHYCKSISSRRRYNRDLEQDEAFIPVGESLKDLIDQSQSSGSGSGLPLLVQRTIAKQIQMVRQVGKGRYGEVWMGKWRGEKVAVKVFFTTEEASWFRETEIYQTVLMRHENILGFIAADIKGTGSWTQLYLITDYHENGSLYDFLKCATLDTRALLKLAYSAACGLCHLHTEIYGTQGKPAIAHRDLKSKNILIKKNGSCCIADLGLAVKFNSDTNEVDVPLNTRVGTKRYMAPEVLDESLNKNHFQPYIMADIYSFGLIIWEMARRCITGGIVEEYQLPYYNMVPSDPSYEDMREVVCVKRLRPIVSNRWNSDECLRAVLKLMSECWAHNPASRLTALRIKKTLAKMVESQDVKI
Protocol: as §1

[4] = target: T3, ALK4 (Homo sapiens, UniProt P36896); assay: TR-FRET enzymatic ALK kinase assay, ALK4
T3 sequence (P36896 24-505): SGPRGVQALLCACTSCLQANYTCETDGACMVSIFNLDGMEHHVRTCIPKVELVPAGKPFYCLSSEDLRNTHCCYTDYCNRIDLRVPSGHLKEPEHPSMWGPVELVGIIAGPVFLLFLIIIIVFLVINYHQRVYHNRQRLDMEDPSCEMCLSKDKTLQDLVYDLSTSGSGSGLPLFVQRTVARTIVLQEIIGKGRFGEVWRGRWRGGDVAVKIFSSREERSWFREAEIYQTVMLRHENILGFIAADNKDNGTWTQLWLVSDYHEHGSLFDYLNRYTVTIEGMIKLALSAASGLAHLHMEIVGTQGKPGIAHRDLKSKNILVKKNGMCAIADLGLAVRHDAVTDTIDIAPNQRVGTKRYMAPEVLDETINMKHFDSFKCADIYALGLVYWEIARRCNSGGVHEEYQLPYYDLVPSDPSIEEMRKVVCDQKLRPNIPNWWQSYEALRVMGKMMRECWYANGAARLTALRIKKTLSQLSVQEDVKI
Protocol: as §1

[5] = target: ALK1 (Homo sapiens, UniProt P37023); assay: TR-FRET enzymatic ALK kinase assay, ALK1
ALK1, sequence (P37023 22-503): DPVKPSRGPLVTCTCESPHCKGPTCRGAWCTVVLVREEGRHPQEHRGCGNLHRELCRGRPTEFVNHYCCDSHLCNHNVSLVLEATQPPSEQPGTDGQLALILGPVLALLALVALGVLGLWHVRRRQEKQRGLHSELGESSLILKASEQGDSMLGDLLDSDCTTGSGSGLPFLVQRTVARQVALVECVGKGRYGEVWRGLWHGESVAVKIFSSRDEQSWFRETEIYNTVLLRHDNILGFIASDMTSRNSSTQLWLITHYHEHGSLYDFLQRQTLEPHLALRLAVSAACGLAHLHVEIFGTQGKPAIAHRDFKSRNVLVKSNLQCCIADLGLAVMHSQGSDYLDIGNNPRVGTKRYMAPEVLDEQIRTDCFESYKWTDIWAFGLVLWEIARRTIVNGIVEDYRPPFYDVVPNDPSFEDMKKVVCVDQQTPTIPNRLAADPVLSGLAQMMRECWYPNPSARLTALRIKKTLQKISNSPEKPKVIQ
Protocol: as §1

[6] = target: ALK6 (Homo sapiens, UniProt O00238); assay: TR-FRET enzymatic ALK kinase assay, ALK6
ALK6, sequence (O00238 14-502): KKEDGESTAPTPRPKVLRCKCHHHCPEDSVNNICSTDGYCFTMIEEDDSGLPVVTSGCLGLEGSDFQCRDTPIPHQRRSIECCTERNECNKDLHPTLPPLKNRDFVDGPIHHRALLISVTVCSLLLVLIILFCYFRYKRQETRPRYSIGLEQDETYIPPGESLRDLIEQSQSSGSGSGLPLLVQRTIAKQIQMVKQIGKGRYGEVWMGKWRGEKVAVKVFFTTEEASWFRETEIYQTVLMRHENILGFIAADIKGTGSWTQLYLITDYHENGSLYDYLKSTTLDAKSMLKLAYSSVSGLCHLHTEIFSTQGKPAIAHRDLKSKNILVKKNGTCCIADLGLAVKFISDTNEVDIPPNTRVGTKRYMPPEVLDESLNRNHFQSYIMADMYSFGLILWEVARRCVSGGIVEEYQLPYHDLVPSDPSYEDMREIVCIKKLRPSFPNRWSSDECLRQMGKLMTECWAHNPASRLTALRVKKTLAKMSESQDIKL
Protocol: as §1

Compound | IC50 [1] | IC50 [2] | IC50 [3] | IC50 [4] | IC50 [5] | IC50 [6] | IC50 ([1]; read-out: Kinase Assay ALK2, enzyme assay) | IC50 ([2]; read-out: Kinase Assay ALK5, enzyme assay) | IC50 ([3]; read-out: Kinase Assay ALK3, enzyme assay) | IC50 ([4]; read-out: Kinase Assay ALK4, enzyme assay) | IC50 ([5]; read-out: Kinase Assay ALK1, enzyme assay) | IC50 ([6]; read-out: Kinase Assay ALK6, enzyme assay)
NC1(c2ccc(-c3cnc4c(-c5ccc(S(N)(=O)=O)c6ccccc56)cnn4c3)cc2)CC1 [Compound 192, 4-(6-(4-(1-aminocyclopropyl)phenyl)pyrazolo[1,5-a]pyrimidin-3-yl)naphthalene-1-sulfonamide] | 50 nM | > 10000 nM | 4800 nM | > 10000 nM | 650 nM | > 10000 nM |  |  |  |  |  | 
C[C@@H]1CNC[C@H](C)N1c1ccc(-c2cnc3c(-c4cc(C(F)(F)F)cc(S(C)(=O)=O)c4)cnn3c2)cc1 [Compound 193, 6-(4-((2R,6S)-2,6-dimethylpiperazin-1-yl)phenyl)-3-(3-(methylsulfonyl)-5-(trifluoromethyl)phenyl)pyrazolo[1,5-a]pyrimidine] | 550 nM | > 10000 nM | > 10000 nM | > 10000 nM | 7500 nM | 1200 nM |  |  |  |  |  | 
CS(=O)(=O)c1cccc(-c2cnn3cc(-c4ccc(OC5(CN6CCC(O)CC6)CC5)cc4)cnc23)c1 [Compound 194, 1-((1-(4-(3-(3-(methylsulfonyl)phenyl)pyrazolo[1,5-a]pyrimidin-6-yl)phenoxy)cyclopropyl)methyl)piperidin-4-ol] | 20 nM | > 10000 nM | 870 nM | > 10000 nM | 230 nM | > 10000 nM |  |  |  |  |  | 
CS(=O)(=O)c1cccc(-c2cnn3cc(-c4ccc(OC5(CN6CCC(O)C6)CC5)cc4)cnc23)c1 (stereo not drawn) [Compound 195, 1-((1-(4-(3-(3-(methylsulfonyl)phenyl)pyrazolo[1,5-a]pyrimidin-6-yl)phenoxy)cyclopropyl)methyl)pyrrolidin-3-ol] | 22 nM | > 10000 nM | 970 nM | > 10000 nM | 270 nM | > 10000 nM |  |  |  |  |  | 
C[C@H](O)c1cccc(-c2cnn3cc(-c4ccc(OC5(CN6C7CCC6CC7)CC5)cc4)cnc23)c1 [Compound 196, (S)-1-(3-(6-(4-(1-(7-azabicyclo[2.2.1]heptan-7-ylmethyl)cyclopropoxy)phenyl)pyrazolo[1,5-a]pyrimidin-3-yl)phenyl)ethanol] | 24 nM | > 10000 nM | 2500 nM | > 10000 nM | 310 nM | 8900 nM |  |  |  |  |  | 
C[C@H](O)c1cccc(-c2cnn3cc(-c4ccc(OC5(CN6CCC7(CC6)CNC7)CC5)cc4)cnc23)c1 [Compound 197, (S)-1-(3-(6-(4-(1-(2,7-diazaspiro[3.5]nonan-7-ylmethyl)cyclopropoxy)phenyl)pyrazolo[1,5-a]pyrimidin-3-yl)phenyl)ethanol] | 52 nM | > 10000 nM | 2000 nM | > 10000 nM | 500 nM | > 10000 nM |  |  |  |  |  | 
C[C@H](O)c1cccc(-c2cnn3cc(-c4ccc(OC5(CN6CCCC6)CC5)cc4)cnc23)c1 [Compound 198, (S)-1-(3-(6-(4-(1-(pyrrolidin-1-ylmethyl)cyclopropoxy)phenyl)pyrazolo[1,5-a]pyrimidin-3-yl)phenyl)ethanol] | 30 nM | > 10000 nM | 1200 nM | > 10000 nM | 710 nM | > 10000 nM |  |  |  |  |  | 
C[C@H](O)c1cccc(-c2cnn3cc(-c4ccc(OC5(CN6CCCCC6)CC5)cc4)cnc23)c1 [Compound 199, (S)-1-(3-(6-(4-(1-(piperidin-1-ylmethyl)cyclopropoxy)phenyl)pyrazolo[1,5-a]pyrimidin-3-yl)phenyl)ethanol] | 25 nM | > 10000 nM | 620 nM | > 10000 nM | 610 nM | 9800 nM |  |  |  |  |  | 
C[C@H](O)c1cccc(-c2cnn3cc(-c4ccc(OCCN5CCCC5)cc4)cnc23)c1 [Compound 200, (S)-1-(3-(6-(4-(2-(pyrrolidin-1-yl)ethoxy)phenyl)pyrazolo[1,5-a]pyrimidin-3-yl)phenyl)ethanol] | 68 nM | > 10000 nM | 1200 nM | > 10000 nM | 1300 nM | 2300 nM |  |  |  |  |  | 
C[C@H](O)c1cccc(-c2cnn3cc(-c4ccc(OCCN5CCCCC5)cc4)cnc23)c1 [Compound 201, (S)-1-(3-(6-(4-(2-(piperidin-1-yl)ethoxy)phenyl)pyrazolo[1,5-a]pyrimidin-3-yl)phenyl)ethanol] | 43 nM | > 10000 nM | 1000 nM | > 10000 nM | 1000 nM | > 10000 nM |  |  |  |  |  | 
NS(=O)(=O)c1ccc(-c2cnn3cc(-c4ccc(OC(F)(F)CN5CCCCC5)cc4)cnc23)c2ccccc12 [Compound 206, 4-(6-(4-(1,1-difluoro-2-(piperidin-1-yl)ethoxy)phenyl)pyrazolo[1,5-a]pyrimidin-3-yl)naphthalene-1-sulfonamide] | 1200 nM | > 10000 nM | > 10000 nM | > 10000 nM | 4600 nM | > 10000 nM |  |  |  |  |  | 
NS(=O)(=O)c1ccc(-c2cnn3cc(-c4ccc(OC5(CN6CCCC6)CC5)cc4)cnc23)c2ccccc12 [Compound 207, 4-(6-(4-(1-(pyrrolidin-1-ylmethyl)cyclopropoxy)phenyl)pyrazolo[1,5-a]pyrimidin-3-yl)naphthalene-1-sulfonamide] | 16 nM | > 10000 nM | > 10000 nM | > 10000 nM | 170 nM | > 10000 nM |  |  |  |  |  | 
NS(=O)(=O)c1ccc(-c2cnn3cc(-c4ccc(OC5(CN6CCCCC6)CC5)cc4)cnc23)c2ccccc12 [Compound 208, 4-(6-(4-(1-(piperidin-1-ylmethyl)cyclopropoxy)phenyl)pyrazolo[1,5-a]pyrimidin-3-yl)naphthalene-1-sulfonamide] | 15 nM | > 10000 nM | > 10000 nM | > 10000 nM | 200 nM | > 10000 nM |  |  |  |  |  | 
NC1(c2ccc(-c3cnc4c(-c5ccc(S(N)(=O)=O)c6ccccc56)cnn4c3)cc2)CNC1 [Compound 209, 4-(6-(4-(3-aminoazetidin-3-yl)phenyl)pyrazolo[1,5-a]pyrimidin-3-yl)naphthalene-1-sulfonamide] | 69 nM | > 10000 nM | > 10000 nM | > 10000 nM | 340 nM | > 10000 nM |  |  |  |  |  | 
(3R)-1-((1-(4-(3-(3-(1-amino-2,2,2-trifluoroethyl)phenyl)pyrazolo[1,5-a]pyrimidin-6-yl)phenoxy)cyclopropyl)methyl)-3-methylpyrrolidin-3-ol [Compound 185] |  |  |  |  |  |  | 44 nM | > 10000 nM | 1800 nM | > 10000 nM | 540 nM | > 10000 nM
